PubChem BioAssay (NCI)
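The compound was tested at five concentrations on cells cultured in 96-well plates, with a 48-hour exposure period. GI50 = concentration required for 50% inhibition of growth. Definition used: TGI = concentration required for complete inhibition of growth.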

Experiments:
Experiment in all cases: NCI tumour cell line growth inhibition, 48 h
RXF 393 renal = system: RXF 393 renal
SK-MEL-5 melanoma = system: SK-MEL-5 melanoma
SK-OV-3 ovarian = system: SK-OV-3 ovarian
SW-620 colon = system: SW-620 colon
K-562 leukemia = system: K-562 leukemia
IGROV1 ovarian = system: IGROV1 ovarian
SR leukemia = system: SR leukemia
SK-MEL-28 melanoma = system: SK-MEL-28 melanoma

Compound | GI50 (RXF 393 renal) [µM] | TGI (RXF 393 renal) [µM] | GI50 (SK-MEL-5 melanoma) [µM] | TGI (SK-MEL-5 melanoma) [µM] | GI50 (SK-OV-3 ovarian) [µM] | TGI (SK-OV-3 ovarian) [µM] | GI50 (SW-620 colon) [µM] | TGI (SW-620 colon) [µM] | GI50 (K-562 leukemia) [µM] | TGI (K-562 leukemia) [µM] | GI50 (IGROV1 ovarian) [µM] | TGI (IGROV1 ovarian) [µM] | GI50 (SR leukemia) [µM] | TGI (SR leukemia) [µM] | GI50 (SK-MEL-28 melanoma) [µM] | TGI (SK-MEL-28 melanoma) [µM]
Cn1c2ccccc2c2nnc(NNCc3ccccn3)nc21 | 0.407 | 3.36 | 0.271 | 1.65 | 0.387 | 7.22 | 0.613 | 16.5 | 0.363 | 13.7 | 0.364 | 4.79 | 0.311 | 18.7 | 0.675 | 11.2
COc1ccc2nccc(/C=C/c3ccnc4ccc(OC)cc34)c2c1 | > 73.4 | > 100 | > 71.4 | > 100 | > 77 | > 100 | 39.8 | > 100 | > 43 | > 59.1 | 28.4 | 75.7 | 21.8 | > 53.7 | 24.6 | 73.8
CCc1ncnc2cc(OCC3CO3)c(OC)cc12 (configuration not stated) | – | 18.7 | – | 21.9 | – | 73.6 | – | > 50.8 | – | > 80.3 | – | 6.8 | – | – | – | 37.4
Nc1ncnc2nn(C3OC(CO)C(O)C3O)nc12 (configuration not stated) | – | > 23.1 | – | 39.7 | – | 16.6 | – | > 100 | – | > 100 | – | 39.1 | – | 16 | – | > 100
CN(C)c1ccc(/C=N/NC(=O)c2cccc3ccccc23)c(Cl)c1 | 1.31 | 10.8 | 0.922 | 24.1 | 1.67 | 25.2 | 0.578 | > 100 | 0.398 | > 100 | 3.44 | > 100 | 0.36 | > 100 | 3.5 | > 100
CN1CCN(c2ccc(C(=O)Nc3cccc(C#Cc4cccc5[nH]nc(N)c45)c3)cc2C(F)(F)F)CC1 | 0.799 | 2.31 | 2.16 | 6.34 | 1.62 | 5.34 | 0.608 | 1.26 | 0.0235 | 0.717 | 0.716 | 1.92 | 1.06 | 5.34 | 0.631 | 1.25
C[C@]12CC[C@@H]3c4ccc(O)cc4CC[C@H]3[C@@H]1CC[C@@H]2NS(=O)(=O)c1ccc2ccccc2c1 | 1.84 | 4.33 | 1.78 | 3.36 | 5.79 | 36.4 | 3.4 | 15.7 | 3.42 | > 100 | 4.1 | 17.2 | 3.72 | 95 | 2.31 | 5.92
CN(C)CCNc1nc2ccccc2c2occc12 | 31.6 | 86.2 | 14.5 | 32.2 | 85.1 | > 100 | 63.4 | > 100 | 25.9 | 98.9 | 34.1 | 89.6 | 21.3 | 54.4 | 27 | > 100
CCN1C(=O)N(CC)C2C1NN=c1s/c(=C\c3cccc([N+](=O)[O-])c3)c(=O)n12 (configuration not stated) | 0.0708 | > 100 | 0.0511 | 1.17 | – | – | 0.0468 | > 100 | 0.0411 | > 100 | 0.162 | > 100 | 0.0471 | > 100 | – | > 100
Cc1ccc(C)c2c(N=Nc3ccccc3[N+](=O)[O-])c(O)[nH]c12 | – | > 100 | – | > 100 | – | > 100 | – | > 100 | – | > 100 | – | > 100 | – | > 100 | – | > 100
CC(=O)NC1=C(Sc2ccc(Cl)cc2)C(=O)c2ccccc2C1=O | – | 4.65 | – | 4.8 | – | 29.1 | – | 4.01 | – | 5.41 | – | 17.1 | – | – | – | 11.9
CSc1nc(N)c2c(n1)NC(c1ccccc1)C1CCc3ccccc3C1=N2 (configuration not stated) | 4.71 | > 100 | 4.79 | > 100 | > 100 | > 100 | – | – | 4.12 | > 100 | 1.61 | 74 | 1.65 | 5.54 | – | –
CC(C)(C)OC(=O)NCCCCCCCCCCn1c2c(c3ccccc3c1=O)C(=O)c1ccccc1-2 | 13 | 37.4 | > 100 | > 100 | 40.3 | > 100 | > 100 | > 100 | 27.4 | > 100 | – | – | – | – | > 100 | > 100
Clc1ccc(N2CCC(N3CCCC3)CC2)cc1-c1nc2ccccc2[nH]1 | 12.9 | 26.8 | 6.59 | 17.1 | 24.5 | > 67.9 | 16.8 | 36 | 17 | 44.5 | 33.8 | > 100 | 20.1 | 58.7 | 16.5 | 31.2
Nc1cc2nc3ccccc3oc-2cc1=O | 5.07 | 14.2 | 1.16 | 2.38 | 19.7 | > 61.4 | 1.91 | 5.08 | 2.05 | > 26.9 | 2.79 | 21.2 | 9.93 | > 75.3 | 1.79 | 3.45
CCOC(=O)c1nc2cc(C(F)(F)F)ccc2[n+]([O-])c1C | 33.9 | > 100 | > 100 | > 100 | > 100 | > 100 | > 100 | > 100 | > 100 | > 100 | > 100 | > 100 | > 100 | > 100 | > 100 | > 100
CNC(=O)c1cc2c(Oc3ccc(NC(=S)NC(=O)Cc4ccccc4)cc3F)ccnc2cc1OC | 2.02 | 6.55 | > 20.6 | > 100 | 5.24 | > 100 | > 100 | > 100 | 0.502 | > 100 | 5.96 | > 100 | 5.78 | > 100 | > 100 | > 100
O=C(COc1ccc(-c2nc3cc(Cl)c(Cl)cc3[nH]2)cc1)N=Nc1c(O)[nH]c2ccccc12 | 2.71 | 9.77 | – | – | 2.28 | 9.88 | – | – | 0.675 | > 100 | 3.13 | > 53.3 | 0.803 | 31.7 | – | –

Compound | GI50 (RXF 393 renal) [µM] | TGI (RXF 393 renal) [µM] | GI50 (SK-MEL-5 melanoma) [µM] | TGI (SK-MEL-5 melanoma) [µM] | GI50 (SK-OV-3 ovarian) [µM] | TGI (SK-OV-3 ovarian) [µM] | GI50 (SW-620 colon) [µM] | TGI (SW-620 colon) [µM] | GI50 (K-562 leukemia) [µM] | TGI (K-562 leukemia) [µM] | GI50 (IGROV1 ovarian) [µM] | TGI (IGROV1 ovarian) [µM] | GI50 (SR leukemia) [µM] | TGI (SR leukemia) [µM] | GI50 (SK-MEL-28 melanoma) [µM] | TGI (SK-MEL-28 melanoma) [µM]
CC(=O)/C(=C\c1c(-c2ccccc2)[nH]c2ccccc12)S(=O)(=O)c1ccccc1 | 1.25 | 2.8 | 0.78 | 2.21 | 2.81 | 19.4 | 0.73 | 7.14 | 0.406 | 2.43 | 1.51 | 4.37 | – | – | 1.87 | 7.02
C#CC(=O)OCC#CCOC(=O)C#C | – | 36.9 | – | > 100 | – | > 100 | – | 40.6 | – | – | – | – | – | – | – | –
COc1ccc(/C(=N/O)c2cc(OC)c(OC)c(OC)c2)c(OC)c1N | – | – | 5.34 | > 100 | 8.51 | > 100 | 4.42 | > 100 | 3.14 | > 100 | 7.71 | > 100 | – | – | > 100 | > 100
C[n+]1c(/C=C/c2ccc(/C=N/NC(=O)c3ccc(C(=O)N/N=C/c4ccc(/C=C/c5cn6ccccc6[n+]5C)cc4)cc3)cc2)cn2ccccc21 | – | – | – | > 100 | – | > 100 | – | > 100 | – | – | – | > 100 | – | – | – | > 100
O=S(=O)(NCCO)c1cc[c]([Sb](=[O])([OH])[OH])cc1 | > 100 | > 100 | > 100 | > 100 | – | – | > 100 | > 100 | > 100 | > 100 | > 100 | > 100 | > 100 | > 100 | > 100 | > 100
CC(=O)c1cccc(NC(=O)c2ccc(NC3=C(Cl)C(=O)N(Cc4ccccc4)C3=O)cc2)c1 | 24 | > 100 | 12.5 | 27.7 | > 100 | > 100 | 5.87 | > 100 | 8.37 | > 100 | – | – | – | – | 25.6 | > 100
CC/C=C\C[C@H](O)C/C=C1/C(=O)C=C[C@@H]1C/C=C\CCCC(=O)NC | 1.67 | 3.17 | 1.62 | 2.98 | 2.9 | 8.54 | 1.28 | 4.63 | 1.7 | > 100 | 2.93 | 10.7 | – | – | 1.69 | 3.6
N=C(N)SCc1ccc([N+](=O)[O-])cc1[N+](=O)[O-] | 1.38 | 4.13 | 6.38 | 19.6 | 20.8 | 53.7 | – | – | 3.42 | 21 | 4.33 | 15.3 | 3.09 | 11.4 | – | –
CN(C)CCOc1ccc(-c2cc(-c3ccc4c(c3)CC/C4=N\O)c(-c3ccncc3)o2)cc1 | 3.07 | 6.78 | 2.2 | 5.86 | 4.08 | 7.51 | 1.92 | 5.45 | 0.668 | 3.27 | 4.7 | 10.1 | – | – | 0.111 | 3.71
Cc1cc(O)cc(C)c1/C=C/c1cncc(C(=O)OC(C)(C)C)c1 | 9.75 | > 25 | 10.2 | > 25 | 16.1 | > 25 | 20.2 | > 25 | 11.6 | > 25 | 13.2 | > 25 | – | – | 17.9 | > 25
COc1ccc(C#CC2=C(c3cc(OC)c(OC)c(OC)c3)C(=O)OC2)cc1 | 6.77 | 26.7 | 2.07 | 11.9 | – | – | – | – | 2.11 | > 50 | 13.9 | > 50 | 2.09 | > 50 | 9.28 | > 50
CCCCN1CCN(c2ccc3nc(-c4ccc5nc(-c6ccc(OCC)c(OCC)c6)[nH]c5c4)[nH]c3c2)CC1 | – | – | 1.09 | 3.16 | 1.33 | 3.27 | 0.474 | 1.79 | 0.529 | 2.27 | – | – | 0.312 | 1.19 | 1.01 | 2.22
CCCC#CCOC(=O)c1cc([N+](=O)[O-])cc([N+](=O)[O-])c1 | – | – | – | > 100 | – | > 100 | – | > 100 | – | > 100 | – | > 100 | – | > 100 | – | > 100
CCN(CC)c1ccc(/C=C/C=C(/C#N)C(N)=S)cc1 | – | – | 5.96 | > 100 | > 100 | > 100 | 15.4 | > 100 | 2.83 | 18.9 | 17.9 | > 100 | – | – | 21.2 | > 100
O=c1cc(O)c2c(O)cc(O)cc2o1 | – | > 100 | – | > 100 | – | – | – | > 100 | – | > 100 | – | > 100 | – | > 100 | – | > 100
Cc1ccc(C(=O)N=Nc2c(O)[nH]c3ccc(Cl)cc23)cc1 | 13.7 | > 50 | 23.7 | > 50 | – | – | 11.4 | 41.4 | 16.2 | > 50 | 36.6 | > 50 | > 50 | > 50 | 41.8 | > 50
COc1ccc(-c2nnc(Nc3nc(O)c(C4=c5cc(F)ccc5=NC4=O)s3)o2)cc1 | 65.8 | > 100 | 28.7 | > 100 | > 100 | > 100 | 47.6 | > 100 | 37.1 | > 100 | 14.3 | 51.4 | – | – | > 100 | > 100
COC(=O)/C(=C\c1c(-c2ccccc2)[nH]c2ccccc12)S(C)(=O)=O | 7.23 | 68.2 | – | – | 12.1 | 75.5 | 2.92 | 15.9 | – | – | 1.67 | 9.17 | 8.08 | > 100 | 6.04 | 21.9
